ChEMBL document CHEMBL1201862, “PubChem BioAssay data set” (2004)
Values joined by “and” are separate entries in the source; they are usually repeats but may differ in a detail not shown here. Equal values may be shown once.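 1) Cells in 96-well plates. 2) Compound, 48 h, 5 concentrations. 3) Linear interpolation between surrounding doses. 4) Unreached endpoint = highest concentration. GI50: concentration for 50% inhibition of growth.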 Active and inactive are the calls of the source. Rule as the data show it: active = GI50 up to about 1.1 µM and inactive = higher. Non-standard residues stand in square brackets, D forms with d. Residues, ends and D or L forms follow the SMILES beside them. ξ: configuration not given here. *: point of attachment. NMeF = CN[C@@H](Cc1ccccc1)C(=O)O; ξNMeV = CNC(C(=O)O)C(C)C; Boc = CC(C)(C)OC(=O)*; OBn = c1ccc(CO*)cc1

Legend:
Assay in all cases: NCI anticancer screen, dose series, 48 h
M19-MEL = tested on: M19-MEL
DMS-114 = tested on: DMS-114
DMS-273 = tested on: DMS-273
RXF 631 = tested on: RXF 631
HOP-18 = tested on: HOP-18
LXFL 529 = tested on: LXFL 529
DLD-1 = tested on: DLD-1
SNB-78 = tested on: SNB-78
XF498 = tested on: XF498

Structure (SMILES) | GI50 (M19-MEL) | GI50 (DMS-114) | GI50 (DMS-273) | GI50 (RXF 631) | GI50 (HOP-18) | GI50 (LXFL 529) | GI50 (DLD-1) | GI50 (SNB-78) | GI50 (XF498)
COC(=O)C(C(=O)C(=O)Nc1ccc([N+](=O)[O-])cc1)c1nc2ccc([N+](=O)[O-])cc2nc1O (stereo not given) | > 100 µM (inactive) | 68.2 µM (inactive) | > 100 µM (inactive) | > 100 µM (inactive) | > 100 µM (inactive) | 43.5 µM (inactive) | > 100 µM (inactive) | > 100 µM (inactive) | –
COC(=O)C(Cc1nc2ccccc2nc1C)/C(=N\NC(N)=O)C(=O)Nc1cccc([N+](=O)[O-])c1 (stereo not given) | 37.9 µM (inactive) | 51.5 µM (inactive) | – | > 100 µM (inactive) | > 100 µM (inactive) | 37.7 µM (inactive) | > 100 µM (inactive) | > 100 µM (inactive) | > 100 µM (inactive)
Cc1ccc(N2C(=O)/C(=C3\Sc4c(nc(C)[nH]c4=O)N3c3ccccc3)SC2=S)cc1 | 63.5 µM (inactive) | 72.6 µM (inactive) | 34.6 µM (inactive) | – | – | 18.5 µM (inactive) | 91.2 µM (inactive) | 39 µM (inactive) | 20.9 µM (inactive)
COC(=O)C1=CC2CC1C(S(=O)(=O)c1ccccc1)C2S(=O)(=O)c1ccccc1 (stereo not given) | 18.3 µM (inactive) | 15.5 µM (inactive) | 10.5 µM (inactive) | 13.5 µM (inactive) | 16.7 µM (inactive) | 5.81 µM (inactive) | 14.5 µM (inactive) | – | –
CCOC(=O)/C(=C/c1cccc(OC)c1)N(CC)CC | > 100 µM (inactive) | > 100 µM (inactive) | > 100 µM (inactive) | – | – | > 100 µM (inactive) | – | > 100 µM (inactive) | > 100 µM (inactive)
CN(c1nc(=[N+](C)C)ss1)C1CCCCC1 | > 100 µM (inactive) | 32.1 µM (inactive) | > 100 µM (inactive) | > 100 µM (inactive) | > 100 µM (inactive) | > 100 µM (inactive) | > 100 µM (inactive) | > 100 µM (inactive) | > 100 µM (inactive)
C=CCCCCCC(O)C(O)C/C=C\C/C=C\CC (stereo not given) | – | > 16.8 µM (inactive) | > 18.8 µM (inactive) | – | > 18.8 µM (inactive) | > 18.8 µM (inactive) | > 18.8 µM (inactive) | > 18.8 µM (inactive) | > 18.8 µM (inactive)
NC(=O)CCC(Nc1c2ccccc2nc2ccccc12)C(=O)O (stereo not given) | > 100 µM (inactive) | – | > 100 µM (inactive) | 77.3 µM (inactive) | – | > 100 µM (inactive) | 88.3 µM (inactive) | – | –
CN(CCO)c1nc(=O)c2c([nH]1)CCC2 | > 100 µM (inactive) | > 100 µM (inactive) | > 100 µM (inactive) | – | > 100 µM (inactive) | > 100 µM (inactive) | > 100 µM (inactive) | > 100 µM (inactive) | > 100 µM (inactive)
O=C1c2ccccc2N2OC3(N4CCCC4)CCCC3C12c1ccccc1 (stereo not given) | > 100 µM (inactive) | 83.4 µM (inactive) | 67.6 µM (inactive) | – | > 100 µM (inactive) | 67.8 µM (inactive) | > 100 µM (inactive) | > 100 µM (inactive) | 92.3 µM (inactive)
C1COCCN1.S=C(S)N1CCOCC1 | 1.25 µM (inactive) | 0.279 µM (active) | 1.38 µM (inactive) | – | > 100 µM (inactive) | 1.34 µM (inactive) | 0.628 µM (active) | 41.5 µM (inactive) | 1.92 µM (inactive)
COc1cccc2c(SCC(=O)Nc3ccccc3-c3ccccc3NC(=O)CSc3c4ccccc4nc4c(OC)cccc34)c3ccccc3nc12 | – | 29.1 µM (inactive) | 71.3 µM (inactive) | 47.6 µM (inactive) | – | – | > 100 µM (inactive) | > 100 µM (inactive) | 76.6 µM (inactive)
CCCC(N)C(=O)c1ccccc1 (stereo not given) | – | > 100 µM (inactive) | > 100 µM (inactive) | – | > 100 µM (inactive) | > 100 µM (inactive) | > 100 µM (inactive) | > 100 µM (inactive) | > 100 µM (inactive)
COC1=C(NC(C)=O)C(=O)c2nc3n(c2C1=O)CCC3 | – | 12.2 µM (inactive) | 18.7 µM (inactive) | – | 18.9 µM (inactive) | – | 15 µM (inactive) | 13 µM (inactive) | 19.1 µM (inactive)
COc1ccc2nc3cc(Cl)ccc3c(Sc3ccc([N+](=O)[O-])cc3C)c2c1 | > 100 µM (inactive) | > 100 µM (inactive) | > 100 µM (inactive) | – | > 100 µM (inactive) | > 100 µM (inactive) | > 100 µM (inactive) | > 100 µM (inactive) | > 100 µM (inactive)
CC(=O)O[C@H]1CC[C@@]2(C)C(=CC[C@@H]3C2CC[C@]2(C)C(=O)NC(=O)CC32)C1 (stereo not given in full) | > 100 µM (inactive) | > 79.6 µM (inactive) | 62.7 µM (inactive) | > 100 µM (inactive) | > 100 µM (inactive) | > 100 µM (inactive) | > 100 µM (inactive) | > 100 µM (inactive) | > 100 µM (inactive)
C=C/C=C/NC(=O)OCc1ccccc1 | > 100 µM (inactive) | > 100 µM (inactive) | > 100 µM (inactive) | – | > 100 µM (inactive) | > 100 µM (inactive) | > 100 µM (inactive) | > 100 µM (inactive) | > 100 µM (inactive)
Nc1ccc(C(=O)O)c2[nH]c3ccccc3c(=O)c12 | > 100 µM (inactive) | > 100 µM (inactive) | > 100 µM (inactive) | – | > 100 µM (inactive) | > 100 µM (inactive) | > 100 µM (inactive) | > 100 µM (inactive) | –
CC1=C(C(=O)Nc2c(C)cccc2C)C(c2ccc3c(c2)OCO3)C(C(=O)Nc2c(C)cccc2C)=C(C)N1 | – | 16.6 µM (inactive) | – | 16.7 µM (inactive) | 18.9 µM (inactive) | 18 µM (inactive) | 19.3 µM (inactive) | 17.6 µM (inactive) | –
CCCCCC(CN1CCOCC1)C(=O)/C=C/c1ccccc1 (stereo not given) | 2.41 µM (inactive) | 1.79 µM (inactive) | 2.31 µM (inactive) | – | – | – | – | 6.9 µM (inactive) | 1.72 µM (inactive)
O=S(O)CCCCSSCC(O)C(O)CSSCCCCS(=O)O (stereo not given) | 5.48 µM (inactive) and 3.37 µM (inactive) | 18.3 µM (inactive) and 14.6 µM (inactive) | 35 µM (inactive) and 19.7 µM (inactive) | 22.2 µM (inactive) and 29.2 µM (inactive) | > 100 µM (inactive) | 9.35 µM (inactive) and 12.5 µM (inactive) | 41.1 µM (inactive) and 68.4 µM (inactive) | 18.2 µM (inactive) and 20.9 µM (inactive) | 12.4 µM (inactive) and 19 µM (inactive)
CCN(CC)CCCCC1CCN(CC(=O)N2c3ccccc3NC(=O)c3ccccc32)CC1 | > 100 µM (inactive) | > 100 µM (inactive) | > 100 µM (inactive) | > 100 µM (inactive) | – | > 100 µM (inactive) | > 100 µM (inactive) | > 100 µM (inactive) | > 100 µM (inactive)
CC1CCCCc2nc3c(c(=O)n21)CCCC3 (stereo not given) | > 100 µM (inactive) | – | > 100 µM (inactive) | 29.4 µM (inactive) | – | > 100 µM (inactive) | > 100 µM (inactive) | > 100 µM (inactive) | > 100 µM (inactive)
CC(C)C(C(=O)N1CCC[C@@H]1C(=O)OCc1ccccc1)N(C)C(=O)C(C(C)C)N(C)C(=O)[C@H](Cc1ccccc1)N(C)C(=O)[C@H](NC(=O)OC(C)(C)C)C(C)C (stereo not given in full) (Boc-[dV][NMeF][ξNMeV][ξNMeV][dP]-OBn) | > 48.5 µM (inactive) | 8.57 µM (inactive) | 42.9 µM (inactive) | – | > 100 µM (inactive) | 8.81 µM (inactive) | > 100 µM (inactive) | > 100 µM (inactive) | > 68.5 µM (inactive)
